Values belong to the compound of their own block, whether it stands above or below them.
Legend:
Phosphodiesterase 4 = Phosphodiesterase 4 (Homo sapiens, UniProt P27815+Q08499+Q07343+Q08493); assay: Inhibition of phosphodiesterase 4 (PDE4) from U937 cells; format: cell-based; settings: u-937
Mustela putorius furo [1] = assay: Emetic effect in fasted ferrets at 30 mg/kg peroral dose (n=2); format: functional; settings: route oral
Homo sapiens = species on record: Homo sapiens; assay: Inhibition of TNF-alpha production in human whole blood; format: functional, organism-based
Cavia porcellus [2] = assay: In vivo inhibition of SRS-A mediated bronchoconstriction in guinea pig at 10 mg/kg peroral dose; format: functional; settings: Lung, route oral
Rattus norvegicus [3] = species on record: Rattus norvegicus; assay: Inhibition of gastric emptying in rats by peroral dose; format: functional; settings: Stomach, po, read-out: ID50 (the source's name)
Mustela putorius furo [4] = assay: Emetic effect in fasted ferrets at 3 mg/kg peroral dose (n=2); format: functional; settings: route oral
Rattus norvegicus [5] = assay: Inhibition of lipopolysaccharide-induced tumor necrosis factor alpha production in rats by peroral administration (n=7); format: functional; settings: po, read-out: ID50 (the source's name)
Mustela putorius furo [6] = assay: Emetic effect in fasted ferrets at 10 mg/kg peroral dose (n=3); format: functional; settings: route oral
Rattus norvegicus [7] = assay: Inhibition of lipopolysaccharide-induced tumor necrosis factor alpha production in rats at 10 mg/kg peroral dose (n=7); format: functional; settings: route oral
Mustela putorius furo [8] = assay: Emetic effect in fasted ferrets at 10 mg/kg peroral dose (n=2); format: functional; settings: route oral
Rattus norvegicus [9] = assay: Inhibition of gastric emptying in rats […] peroral dose; format: functional; settings: Stomach, route oral, read-out: ID50 (the source's name)
Cavia porcellus [10] = assay: In vivo inhibition of slow reacting substance of anaphylaxis (SRS-A) mediated bronchoconstriction in guinea pig; format: functional, organism-based; settings: Lung
Rattus norvegicus [11] = assay: Inhibition of lipopolysaccharide-induced tumor necrosis factor alpha production in rats at 3 mg/kg peroral dose (n=7); format: functional; settings: route oral
Rattus norvegicus [12] = assay: Inhibition of lipopolysaccharide-induced tumor necrosis factor alpha production in rats by peroral administration; format: functional; settings: po, read-out: ID50 (the source's name)

SMILES: Cc1nn(C)c2ncc(C(N)=O)c(Nc3cccc(OC4CCCCC4)c3)c12
IC50 (Phosphodiesterase 4): > 100 nM

SMILES: COC(=O)N1CC[C@H](Oc2cccc(Nc3c(C(N)=O)cnc4c3c(C)nn4C)c2)C1
No. of ferrets (Mustela putorius furo [1]): 2 | IC50 (Homo sapiens): 4800 nM | IC50 (Phosphodiesterase 4): 10 nM | inhibition in vivo at 10 mg/kg (Cavia porcellus [2]): 45% | ED50 (Rattus norvegicus [3]): 15 mg/kg | No. of ferrets (Mustela putorius furo [4]): 0 | ED50 (Rattus norvegicus [5]): 1 mg/kg | No. of ferrets (Mustela putorius furo [6]): 0

SMILES: COc1ccc(Nc2c(C(N)=O)cnc3c2c(C)nn3C)cc1
IC50 (Phosphodiesterase 4): > 100 nM

SMILES: Cc1nn(C)c2ncc(C(N)=O)c(Nc3cccc(O[C@H]4CCN(C(=O)OC(C)(C)C)C4)c3)c12
IC50 (Phosphodiesterase 4): > 300 nM

SMILES: CC(=O)N1CC[C@H](Oc2cccc(Nc3c(C(N)=O)cnc4c3c(C)nn4C)c2)C1
IC50 (Phosphodiesterase 4): > 300 nM

SMILES: Cc1nn(C)c2ncc(C(N)=O)c(Nc3cccc(OC4CCCC4)c3)c12
IC50 (Phosphodiesterase 4): > 100 nM | inhibition in vivo at 10 mg/kg (Rattus norvegicus [7]): 39%

SMILES: Cc1nn(C)c2ncc(C(N)=O)c(Nc3cccc(O[C@H]4CCN(S(C)(=O)=O)C4)c3)c12
IC50 (Phosphodiesterase 4): 250 nM

SMILES: Cc1nn(C)c2ncc(C(N)=O)c(Nc3cccc(O[C@H]4CCNC4)c3)c12
IC50 (Phosphodiesterase 4): > 300 nM

SMILES: COc1ccc([C@]2(C#N)CC[C@@H](C(=O)O)CC2)cc1OC1CCCC1 [CILOMILAST]
ED50 (Rattus norvegicus [3]): 5.7 mg/kg | ED50 (Rattus norvegicus [12]): 1.7 mg/kg | IC50 (Cavia porcellus [10]): 4500 nM

More lines, main results first:

IC50 (Phosphodiesterase 4): 97 nM
SMILES: Cc1nn(C)c2ncc(C(N)=O)c(Nc3cccc(O)c3)c12
inhibition in vivo at 10 mg/kg (Rattus norvegicus [7]): 40%

IC50 (Phosphodiesterase 4): 36 nM
SMILES: Cc1nn(C)c2ncc(C(N)=O)c(Nc3ccccc3)c12
inhibition in vivo at 10 mg/kg (Rattus norvegicus [7]): 48%

IC50 (Homo sapiens): 3000 nM | IC50 (Phosphodiesterase 4): 5 nM | IC50 (Cavia porcellus [10]): 6800 nM
SMILES: COc1cccc(Nc2c(C(N)=O)cnc3c2c(C)nn3C)c1
No. of ferrets (Mustela putorius furo [1]): 1 | No. of ferrets (Mustela putorius furo [8]): 0 | No. of ferrets (Mustela putorius furo [4]): 0 | ED50 (Rattus norvegicus [9]): 23 mg/kg | ED50 (Rattus norvegicus [5]): 2.4 mg/kg

IC50 (Phosphodiesterase 4): 85 nM
SMILES: Cc1nn(C)c2ncc(C(N)=O)c(Nc3cccc(C#N)c3)c12
inhibition in vivo at 3 mg/kg (Rattus norvegicus [11]): 2%

IC50 (Phosphodiesterase 4): 76 nM
SMILES: COc1ccccc1Nc1c(C(N)=O)cnc2c1c(C)nn2C
inhibition in vivo at 10 mg/kg (Rattus norvegicus [7]): 68%

IC50 (Phosphodiesterase 4): > 100 nM
SMILES: Cc1nn(C)c2ncc(C(N)=O)c(Nc3cccc(OC4CCC4)c3)c12
